≈ marks a conversion by molar mass, not a printed value.
Assays:
Colon 26 (colon cancer) = experiment: Growth inhibition (MTT) of Colon 26 cells; type: cell-based, murine; details: Mus musculus, Colon26 cells, 48 hours, read-out: 50% growth inhibition concentration
Procedure: (§1) Note that the tests were performed as follows. Various kinds of murine cancer cells (L1210 (leukemia)), Colon 26 (colon cancer), B16BL6 (malignant melanoma)) were suspended in RPMI1640 medium containing 10% fetal calf serum and adjusted to 2×10^4 cells/well and 0.1 ml of each of the suspensions was seeded on a 96-well plate. At the same time, a predetermined amount of the substance F-1490 was added and the resultants were cultivated at 37° C. for 48 hours in the air containing 5% CO2. Further, 10 μl of 0.5% MTT (3-[4,5-dimethylthiazol-2-yl] […] tetrazolium bromide) was added and the resultants were cultivated for 4 hours. After the cultivation, 0.1 ml of 10% SDS-0.01N hydrochloric acid was added and absorbance at 570 nm was measured to determine 50% growth inhibition concentration.

[1] = system: B16BL6 (malignant melanoma); experiment: Growth inhibition (MTT) of B16BL6 cells; type: cell-based, murine; details: Mus musculus, B16-BL6, 48 hours, read-out: 50% growth inhibition concentration
Procedure: as §1

[2] = system: bone marrow cells (differentiation into osteoclasts); experiment: Osteoclast differentiation inhibition: count of tartaric acid-resistant acid phosphatase-positive cells; type: cell-based, C57BL/6 mouse
Procedure: Bone marrow cells were collected from a C57BL/6mouse (female, 6 weeks old) and suspended in RPMI1460 medium that contains 10% fetal calf serum, 1 mM pyruvic acid, 0.1 mM non-essential amino acids (manufactured by Gibco), 500 μM 2-mercaptoethanol, 200 ng/ml parathyroid hormone related protein (PTHrP) and 50 μg/ml L-ascorbic acid and 1 ml of the suspension adjusted to a cell population of 1.5×10^6 cells/well was inoculated on a 24-well microplate. At the same time a test sample was added in appropriate amounts. On days 2 and 4 from the start of the cultivation, half the amount of the medium is exchanged with fresh medium containing the test sample. On day 7 from the start of the cultivation, the medium is removed by suction and the cells are fixed with an acetone:methanol (1:1) solution, to thereby allow tartaric acid-resistant acid phosphatase-positive cells stained. That is, 0.4 ml of a 0.2-M acetate buffer (pH 5.2) containing a staining fluid (0.1 mg/ml Naphthol AS-MX phosphate (Sigma AB), 0.6 mg/ml Fast red violet LB sal (Sigma AB) and 20 mM tartaric acid is added to each well and the resultants are allowed to react at 37° C. for 1 hour. After color development, the number of tartaric acid-resistant acid phosphatase-positive cells, which is an index of differentiation into osteoclasts, is measured under a microscope.
When the test sample contains a substance that is effective for inhibition of osteoclast differentiation, the occurrence of tartaric acid-resistant acid phosphatase-positive cells is inhibited. From changes in the above-mentioned number of cells depending on the concentration of the test sample, an effective concentration range of the test sample can be obtained.

L1210 (leukemia) = experiment: Growth inhibition (MTT) of L1210 cells; type: cell-based, murine; details: Mus musculus, 48 hours, read-out: 50% growth inhibition concentration
Procedure: as §1

O=C(O)c1cccc2c1NC1CCCCC1(O)O2 (centres unmarked) [Substance F-1490-A]
IC50 (Colon 26 (colon cancer)): > 50 µg/mL
IC50 [1]: > 50 µg/mL
IC50 ([2]; Mus musculus, Table 1, osteoclast differentiation test, read-out: 50% growth inhibition concentration): 0.65 µg/mL (≈ 2.61 µM)
inhibition at 0.2 µg/mL ([2]; Osteoclast, 168 h, concentration 0.20 μg/ml, day 7, PTHrP-stimulated mouse bone marrow cells, read-out: Inhibition rate of differentiation into osteoclasts (%)): 2%
inhibition at 0.78 µg/mL ([2]; Osteoclast, 168 h, concentration 0.78 μg/ml, day 7, PTHrP-stimulated mouse bone marrow cells, read-out: Inhibition rate of differentiation into osteoclasts (%)): 63%
inhibition at 3.1 µg/mL ([2]; Osteoclast, 168 h, concentration 3.10 μg/ml, day 7, PTHrP-stimulated mouse bone marrow cells, read-out: Inhibition rate of differentiation into osteoclasts (%)): 74%
inhibition at 12.5 µg/mL ([2]; Osteoclast, 168 h, concentration 12.50 μg/ml, day 7, PTHrP-stimulated mouse bone marrow cells, read-out: Inhibition rate of differentiation into osteoclasts (%)): 87%
IC50 (L1210 (leukemia)): > 50 µg/mL
